Measurements from paper PMC5764337 (PLoS ONE, 2018).

What was measured:
A/PR8-WT virus NA = A/PR8-WT virus NA (Influenza A virus (H3N2), UniProt A0A193ACB1); assay type: biochemical
B/BR/60/08 virus NA = B/BR/60/08 virus NA (Influenza B virus, UniProt C0LT34); assay type: biochemical; settings: read-out: NA enzyme inhibition assay (mean IC50 ± SD)

CCC(CC)[C@H](NC(C)=O)[C@@H]1[C@H](O)[C@@H](C(=O)O)C[C@H]1N=C(N)N [Peramivir, peramivir]
fold increase in IC50 over A/PR8-WT (A/PR8-WT virus NA): 0.1 ± 0.02 (1) fold
IC50 (A/PR8-WT virus NA; read-out: NA enzyme inhibition assay (mean IC50 ± SD)): 0.1 nM
IC50 (B/BR/60/08 virus NA): 0.5 nM
